Laboratory results: patent US8999956B2, “N-[(het)arylalkyl)] pyrazole(thio)carboxamides and their heterosubstituted analogues” (Bayer Intellectual Property GmbH, priority 2010, dated 2015)
Read-outs that look alike come from different tables or passages of the source.

How the values were obtained:
Cochliobolus miyabeanus = assay: In vivo protective test on Cochliobolus miyabeanus (rice); conditions: Table M, 250 ppm of active ingredient, evaluated 4 days after inoculation
[1] = log P by HPLC on reversed-phase column (EEC Directive 79/831 Annex V.A8); format: physicochemical
Experimental: In table 1, the log P values were determined in accordance with EEC Directive 79/831 Annex V.A8 by HPLC (High Performance Liquid Chromatography) on a reversed-phase column (C18), using the method described below: Temperature: 40° C.; […]

Alternaria solani = assay: In vivo preventive test on Alternaria solani (tomato); conditions: 500 ppm of active ingredient, evaluated 7 days after inoculation
In short: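 Young tomato plants sprayed preventively with compound in DMF/alkylarylpolyglycolether emulsion diluted in water to the stated rate. Inoculation with aqueous Alternaria solani spore suspension one day after treatment.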

Pyrenophora teres = assay: In vivo preventive test on Pyrenophora teres (barley); conditions: 500 ppm of active ingredient, evaluated 7-9 days after inoculation
In short: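 Compound formulated in N,N-dimethylformamide with alkylaryl polyglycol ether emulsifier and diluted in water, then sprayed on young barley plants at the stated application rate. Plants inoculated one day later with aqueous Pyrenophora teres spore suspension, testing preventive protection.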

Puccinia triticina = assay: In vivo preventive test on Puccinia triticina (wheat); conditions: Table K, 500 ppm of active ingredient, evaluated 8 days after inoculation
[2] = tested on: Fusarium nivale (var. majus); assay: In vivo preventive test on Fusarium nivale (wheat); conditions: 500 ppm of active ingredient, evaluated 5 days after inoculation
Experimental: (§1) Solvent: 49 parts by weight of N,N-dimethylacetamide Emulsifier: 1 part by weight of alkylaryl polyglycol ether To produce a suitable preparation of active compound, 1 part by weight of active compound or active compound combination is mixed with the stated amounts of solvent and emulsifier, and the concentrate is diluted with water to the desired concentration. To test for preventive activity, young plants are sprayed with the preparation of active compound or active compound combination at the stated rate of application. After the spray coating has been dried, the plants are slightly injured by using a sandblast and afterwards they are sprayed with a conidia suspension of Fusarium nivale (var. majus).

[3] = tested on: Blumeria graminis fsp. hordei; assay: In vivo preventive test on Blumeria graminis (barley); conditions: 500 ppm of active ingredient, evaluated 7 days after inoculation
Experimental: as §1, with “dusted” for “slightly injured by using a sandblast and afterwards they are sprayed”, “spores” for “a conidia suspension”, “Blumeria graminis fsp. hordei.” for “Fusarium nivale (var. majus).”

Uromyces appendiculatus = assay: In vivo preventive test on Uromyces appendiculatus (beans); conditions: 100 ppm of active ingredient, evaluated 10 days after inoculation
Experimental: (§2) Solvent: 24.5 parts by weight of acetone • 24.5 parts by weight of N,N-dimethylacetamide Emulsifier: 1 part by weight of alkylaryl polyglycol ether To produce a suitable preparation of active compound, 1 part by weight of active compound is mixed with the stated amounts of solvent and emulsifier, and the concentrate is diluted with water to the desired concentration. To test for preventive activity, young plants are sprayed with the preparation of active compound at the stated rate of application.

Venturia inaequalis = assay: In vivo preventive test on Venturia inaequalis (apple scab); conditions: 100 ppm of active ingredient, evaluated 10 days after inoculation
Experimental: as §2

Leptosphaeria nodorum = assay: In vivo preventive test on Leptosphaeria nodorum (wheat); conditions: 500 ppm of active ingredient, evaluated 7-9 days after inoculation
In short: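 Compound formulated in N,N-dimethylacetamide with alkylaryl polyglycol ether emulsifier and diluted with water. Young wheat plants were sprayed at the stated application rate, then inoculated one day later with an aqueous spore suspension of L. nodorum.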

Septoria tritici = assay: In vivo preventive test on Septoria tritici (wheat); conditions: 500 ppm of active ingredient, evaluated 21 days after inoculation
Experimental: as §1, with “are” for “are slightly injured by using a sandblast and afterwards they are”, “spore” for “conidia”, “Septoria tritici.” for “Fusarium nivale (var. majus).”

Aspergillus parasiticus = assay: microbe, parasite or virus in culture; format: cell-based
[4] = tested on: aflatoxines produced by Aspergillus parasiticus; assay: microbe, parasite or virus in culture; format: cell-based
Sphaerotheca fuliginea = assay: In vivo preventive test on Sphaerotheca fuliginea (cucumber); conditions: 500 ppm of active ingredient, evaluated 7 days after inoculation
In short: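 Young cucumber plants sprayed with compound (in DMF with alkylarylpolyglycolether emulsifier, diluted in water) at the stated application rate. Inoculated one day later with aqueous Sphaerotheca fuliginea spore suspension. Plants then held in greenhouse at approximately 23° C and approximately 70% relative humidity.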

Phakopsora pachyrhizi = assay: In vivo protective test on Phakopsora pachyrhizi (soybeans); conditions: Table N, 250 ppm of active ingredient, evaluated 11 days after inoculation
Botrytis cinerea = assay: In vivo preventive test on Botrytis cinerea (beans); conditions: Table L, 500 ppm of active ingredient, lesion size 2 days after inoculation
Experimental: Solvent: 24.5 parts by weight of acetone • 24.5 parts by weight of N,N-dimethylacetamide
Emulsifier: 1 part by weight of alkylaryl polyglycol ether
To produce a suitable preparation of active compound, 1 part by weight of active compound is mixed with the stated amounts of solvent and emulsifier, and the concentrate is diluted with water to the desired concentration.
To test for preventive activity, young plants are sprayed with the preparation of active compound. After the spray coating has dried on, 2 small pieces of agar covered with growth of Botrytis cinerea are placed on each leaf. The inoculated plants are placed in a darkened chamber at 20° C. and a relative atmospheric humidity of 100%.
2 days after the inoculation, the size of the lesions on the leaves is evaluated. 0% means an efficacy which corresponds to that of the untreated control, while an efficacy of 100% means that no disease is observed.

## Cn1nc(C(F)F)c(C(=O)NC2CCCC(CCC(C)(C)C)C2)c1F (stereo not drawn) [Example 324, 3-(difluoromethyl)-N-[3-(3,3-dimethylbutyl)cyclohexyl]-5-fluoro-1-methyl-1H-pyrazole-4-carboxamide]
Cochliobolus miyabeanus
  Efficacy: 97%
[1]; log P
  chromatographic logP: 4.8
[1]; logP
  chromatographic logP: 4.8
Alternaria solani
  Efficacy: 90%
Pyrenophora teres
  Efficacy: 94%
Puccinia triticina; Puccinia triticina, 192 h, read-out: Efficacy
  pest or weed control at 500 ppm: 100%
[2]
  Efficacy: 100%

## Cn1nc(C(F)F)c(C(=O)NC2CCCCC2CCC(C)(C)C)c1Cl (single isomer, unassigned) [Example 354]
[1]
  logP: 4.73 isomer A
[3]
  Efficacy: 100%
Puccinia triticina
  Efficacy: 100%
[2]
  Efficacy: 100%
Uromyces appendiculatus
  Efficacy: 100%
Venturia inaequalis
  Efficacy: 100%

## CC(CCc1ccc(Cl)cc1Cl)N(C(=O)c1c(C(F)F)nn(C)c1F)C1CC1 (stereo not drawn) [Example 184]
Leptosphaeria nodorum
  Efficacy: 95%
[1]
  logP: 4.56
Alternaria solani
  Efficacy: 90%
Pyrenophora teres
  Efficacy: 100%
Septoria tritici
  Efficacy: 100%
[3]
  Efficacy: 100%
Aspergillus parasiticus
  % Inhibition of fungal growth at 50 μM: 100%
Puccinia triticina
  Efficacy: 90%
[2]
  Efficacy: 100%
Uromyces appendiculatus
  Efficacy: 100%
[4]
  % Inhibition of Aflatoxin at 50 μM: 100%
Sphaerotheca fuliginea
  Efficacy: 100%
Venturia inaequalis
  Efficacy: 100%

## CCCCC1CCCCC1NC(=O)c1c(C(F)F)nn(C)c1Cl (stereo not drawn) [Example 331]
[1]
  logP: 4.10
Alternaria solani
  Efficacy: 100%
Pyrenophora teres
  Efficacy: 95%
Septoria tritici
  Efficacy: 100%
[3]
  Efficacy: 100%
Aspergillus parasiticus
  % Inhibition of fungal growth at 50 μM: 79%
Puccinia triticina
  Efficacy: 90%
[2]
  Efficacy: 100%
Uromyces appendiculatus
  Efficacy: 100%
[4]
  % Inhibition of Aflatoxin at 50 μM: 99%
Sphaerotheca fuliginea
  Efficacy: 100%
Venturia inaequalis
  Efficacy: 100%

## Cn1nc(C(F)F)c(C(=O)N(CC2CCCCC2c2ccccc2Cl)C2CC2)c1F (stereo not drawn) [Example 241]
Phakopsora pachyrhizi
  Efficacy: 99%
Leptosphaeria nodorum
  Efficacy: 80%
[1]
  logP: 4.67
Alternaria solani
  Efficacy: 100%
Pyrenophora teres
  Efficacy: 100%
Septoria tritici
  Efficacy: 100%
Aspergillus parasiticus
  % Inhibition of fungal growth at 50 μM: 97%
Puccinia triticina
  Efficacy: 100%
Uromyces appendiculatus
  Efficacy: 100%
[4]
  % Inhibition of Aflatoxin at 50 μM: 100%
Sphaerotheca fuliginea
  Efficacy: 100%
Botrytis cinerea
  Efficacy: 99%
Venturia inaequalis
  Efficacy: 100%

## Cn1nc(C(F)F)c(C(=O)NC2CCCCC2CC[Si](C)(C)C)c1F (stereo not drawn) [Example 353]
Phakopsora pachyrhizi
  Efficacy: 85%
[1]
  logP: 4.70
Alternaria solani
  Efficacy: 95%
Pyrenophora teres
  Efficacy: 95%
Septoria tritici
  Efficacy: 80%
[3]
  Efficacy: 90%
Aspergillus parasiticus
  % Inhibition of fungal growth at 50 μM: 85%
Puccinia triticina
  Efficacy: 70%
[2]
  Efficacy: 100%
[4]
  % Inhibition of Aflatoxin at 50 μM: 99%
Venturia inaequalis
  Efficacy: 99%

## CON(C(=O)c1c(C(F)F)nn(C)c1Cl)C(C)CCc1c(Cl)cc(Cl)cc1Cl (stereo not drawn) [Example 218]
[1]
  logP: 4.89
Alternaria solani
  Efficacy: 90%
Pyrenophora teres
  Efficacy: 100%
Septoria tritici
  Efficacy: 86%
[2]
  Efficacy: 100%
Uromyces appendiculatus
  Efficacy: 95%
Venturia inaequalis
  Efficacy: 100%

## CC(CC(C)(C)C)C1CCCCC1NC(=O)c1c(C(F)F)nn(C)c1Cl (stereo not drawn) [Example 359]
[1]
  logP: 5.28
Alternaria solani
  Efficacy: 95%
Pyrenophora teres
  Efficacy: 100%
Septoria tritici
  Efficacy: 100%
[3]
  Efficacy: 94%
Aspergillus parasiticus
  % Inhibition of fungal growth at 50 μM: 90%
Puccinia triticina
  Efficacy: 100%
[2]
  Efficacy: 100%
Uromyces appendiculatus
  Efficacy: 100%
[4]
  % Inhibition of Aflatoxin at 50 μM: 100%
Sphaerotheca fuliginea
  Efficacy: 100%
Venturia inaequalis
  Efficacy: 99%

## CC(CC(C)(C)C)C1CCCCC1NC(=O)c1c(C(F)F)nn(C)c1F (single isomer, unassigned) [Example 360]
Cochliobolus miyabeanus
  Efficacy: 94%
[1]
  logP: 4.85 isomer A
Alternaria solani
  Efficacy: 95%
Pyrenophora teres
  Efficacy: 95%
Septoria tritici
  Efficacy: 90%
[3]
  Efficacy: 100%
Aspergillus parasiticus; 50 µM
  % Inhibition of fungal growth at 50 μM: 96%
Puccinia triticina
  Efficacy: 100%
[2]
  Efficacy: 86%
[4]
  % Inhibition of Aflatoxin at 50 μM: 100%
Sphaerotheca fuliginea
  Efficacy: 100%
Venturia inaequalis
  Efficacy: 100%

## Cn1nc(C(F)F)c(C(=O)NC2CCCCC2CCC(C)(C)C)c1F (single isomer, unassigned) [Example 358]
Phakopsora pachyrhizi
  Efficacy: 95%
[1]
  logP: 4.51 isomer B
Alternaria solani
  Efficacy: 100%
Pyrenophora teres
  Efficacy: 100%
Septoria tritici
  Efficacy: 80%
[3]
  Efficacy: 100%
Puccinia triticina
  Efficacy: 100%
[2]
  Efficacy: 100%
Sphaerotheca fuliginea
  Efficacy: 100%
Venturia inaequalis
  Efficacy: 100%

## CC(C)CC(C)C1CCCCC1NC(=O)c1c(C(F)F)nn(C)c1Cl (single isomer, unassigned) [Example 335]
[1]
  logP: 4.96 isomer B
[3]
  Efficacy: 70%
Aspergillus parasiticus; 50 µM
  % Inhibition of fungal growth at 50 μM: 84%
Puccinia triticina
  Efficacy: 100%
[2]
  Efficacy: 86%
Uromyces appendiculatus
  Efficacy: 100%
[4]
  % Inhibition of Aflatoxin at 50 μM: 100%
Venturia inaequalis
  Efficacy: 100%

## Cn1nc(C(F)F)c(C(=O)N(CC2CCCCC2c2ccc(Cl)cc2Cl)C2CC2)c1F (stereo not drawn) [Example 242]
Phakopsora pachyrhizi
  Efficacy: 99%
[1]
  logP: 5.31
Alternaria solani
  Efficacy: 100%
Pyrenophora teres
  Efficacy: 100%
Aspergillus parasiticus
  % Inhibition of fungal growth at 50 μM: 100%
Puccinia triticina
  Efficacy: 100%
Uromyces appendiculatus
  Efficacy: 100%
[4]
  % Inhibition of Aflatoxin at 50 μM: 100%
Sphaerotheca fuliginea
  Efficacy: 100%
Botrytis cinerea
  Efficacy: 95%
Venturia inaequalis
  Efficacy: 100%

## CC(N(C(=O)c1c(C(F)F)nn(C)c1F)C1CC1)C(C)(C)Cc1ccccc1 (stereo not drawn) [Example 9]
Leptosphaeria nodorum
  Efficacy: 100%
[1]
  logP: 4.06
Alternaria solani
  Efficacy: 90%
Pyrenophora teres
  Efficacy: 100%
Septoria tritici
  Efficacy: 100%
[3]
  Efficacy: 100%
[2]
  Efficacy: 100%
Uromyces appendiculatus
  Efficacy: 94%
Sphaerotheca fuliginea
  Efficacy: 95%
Botrytis cinerea
  Efficacy: 100%
Venturia inaequalis
  Efficacy: 100%

## Cn1nc(C(F)F)c(C(=O)NC2CCCCC2CCC(C)(C)C)c1Cl (single isomer, unassigned) [Example 355]
[1]
  logP: 4.95 isomer B
[3]
  Efficacy: 80%
[2]
  Efficacy: 100%
Uromyces appendiculatus
  Efficacy: 100%
Venturia inaequalis
  Efficacy: 99%

## CC(CCc1c(Cl)cc(Cl)cc1Cl)N(C(=O)c1c(C(F)F)nn(C)c1F)C1CC1 (stereo not drawn) [Example 213]
Leptosphaeria nodorum
  Efficacy: 95%
[1]
  logP: 5.14
Alternaria solani
  Efficacy: 100%
Pyrenophora teres
  Efficacy: 100%
Septoria tritici
  Efficacy: 93%
[3]
  Efficacy: 100%
Aspergillus parasiticus
  % Inhibition of fungal growth at 50 μM: 100%
Puccinia triticina
  Efficacy: 90%
[2]
  Efficacy: 93%
[4]
  % Inhibition of Aflatoxin at 50 μM: 100%
Sphaerotheca fuliginea
  Efficacy: 99%
Botrytis cinerea
  Efficacy: 86%
